In US20070173486A1, “Azetidinecarboxamide derivatives and their use in the treatment of cb1 receptor mediated disordrs” (VERNALIS RESEARCH LIMITED, priority 2003, published 2007):

Molecular target: T1, recombinant human CB1 receptors (Homo sapiens, UniProt P21554)
T1 construct: expressed in transfected cells; host or cells: HEK293
Test: Binding to CB1 Receptors
Details: [3H]-SR-141716A 1 nM; membranes from HEK293 cells expressing recombinant hCB1; Ki calculated from IC50 (Cheng-Prusoff)
Protocol: The binding of compounds of Formula I to recombinant human CB1 receptors was determined in vitro by standard methods, with reference to the procedure described by Rinaldi-Carmona et al. (Rinaldi-Carmona, M., Pialot, F., Congy, C., Redon, E., Barth, F., Bachy, A., Breliere, J. C., Soubre, P., LeFur, G., Life Sci. 1996, 58(15), 1239-1247). Membranes were prepared from HEK293 cells expressing recombinant hCB1 receptors. Binding assays are performed in a total volume of 250 μL, containing [^3H]-SR-141716A (1 nM final concentration), membranes and test compound. Non-specific binding is determined using CP55,940 (10 μM). Serial dilutions are performed starting from test compounds as 10 mM solutions in DMSO. Compounds are tested over the concentration range 10^−10 M to 10^−5 M. Ki values are calculated from IC50 values using the Cheng-Prusoff equation.

T1 sequence (P21554 whole entry): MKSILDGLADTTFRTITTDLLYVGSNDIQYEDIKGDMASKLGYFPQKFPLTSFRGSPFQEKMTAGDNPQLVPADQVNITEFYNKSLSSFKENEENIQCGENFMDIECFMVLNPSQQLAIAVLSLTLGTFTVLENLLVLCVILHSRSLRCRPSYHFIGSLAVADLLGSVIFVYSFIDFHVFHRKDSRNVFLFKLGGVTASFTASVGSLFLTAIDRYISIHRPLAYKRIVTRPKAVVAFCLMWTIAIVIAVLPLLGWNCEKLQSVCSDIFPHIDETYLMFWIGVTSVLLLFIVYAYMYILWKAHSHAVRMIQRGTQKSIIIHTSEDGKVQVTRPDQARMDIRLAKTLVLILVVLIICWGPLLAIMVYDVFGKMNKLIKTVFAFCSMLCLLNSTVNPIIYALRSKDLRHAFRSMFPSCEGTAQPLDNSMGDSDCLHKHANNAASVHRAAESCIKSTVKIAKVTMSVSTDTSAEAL

| Ki [nM] | Structure (SMILES) |
| --- | --- |
| 27.7 | CC(C)(C)NC(=O)N1CC(OC(c2ccc(Cl)cc2)c2cccnc2Cl)C1 (racemic) [Example 32, 3-[4-chloro-[…]-(2-chloropyridin-3-yl)benzyloxy]-N-(tert-butyl)azetidine-1-carboxamide] |
| 8.6 | CC(C)(C)NC(=O)N1CC(OC(c2ccc(Cl)cc2)c2cccnc2Cl)C1 (single isomer, unassigned) [Example 34, 3-[(S*)-4-chloro-[…]-(2-chloropyridin-3-yl)benzyloxy]-N-(tert-butyl)azetidine-1-carboxamide] |
| 0.8 | CC(C)(C)OC(=O)N1CCCN(C(=O)N2CC(OC(c3ccc(Cl)cc3)c3ccccc3Cl)C2)CC1 (stereo not drawn) [Example 1, 4-[3-(2,4′-dichlorobenzhydryloxy)azetidine-1-carbonyl]-[1,4]diazepine-1-carboxylic acid tert-butyl ester] |
| 1.5 | CN(Cc1ccccc1)C(=O)N1CC(OC(c2ccc(Cl)cc2)c2ccccc2C(F)(F)F)C1 (stereo not drawn) [Example 4, 3-[2-(trifluoromethyl)-4′-chlorobenzhydryloxy]-N-methyl-N-benzyl-azetidine-1-carboxamide] |
| 3.2 | CO[C@H](C(=O)N1CC(OC(c2ccc(Cl)cc2)c2ccc(Cl)cc2Cl)C1)c1ccccc1 (stereo partly drawn) [Example 11, 3-(2,4,4′-trichlorobenzhydryloxy)-1-[(S)-2-methoxy-2-phenylethanoyl]azetidine] |
| 5.5 | CCCCS(=O)(=O)N1CC(OC(c2ccc(Cl)cc2)c2ccc(Cl)cc2Cl)C1 (stereo not drawn) [Example 20, 1-(n-butyl)sulfonyl-3-(2,4,4′-trichlorobenzhydryloxy)azetidine] |
